Broadly, the inhibition is how much of the control response was suppressed. A lower inhibition goes with a weak effect. What is called IC50 is the concentration that inhibits the measured activity by half.

Experiment [1] deals with T1, human DPP1 enzyme (Homo sapiens, UniProt P53634). Nature of the experiment: Human DPP1 Enzyme Single-Point Percent Inhibition Testing (HL-60 lysate). More on the design: A crude lysate of HL-60 cells (ATCC; Manassas, VA) was used as a source of human DPP1 enzyme; host or cells: HL-60 cells (crude lysate). To be noted: final compound concentration of 10 nM, 400 μM H-Gly-Arg-AMC, n = 1. Type of experiment: biochemical. The protocol: Example 98. Human DPP1 Enzyme Single-Point Percent Inhibition Testing
A crude lysate of HL-60 cells (ATCC; Manassas, VA) was used as a source of human DPP1 enzyme in the assay. Lysate was prepared in 1% Triton X-100 in PBS at a concentration of 20,000 live cells per μL of lysis buffer and was centrifuged at 16,000 rcf for 10 minutes at 4° C., after which supernatant was collected and flash-frozen in liquid nitrogen. Test articles were applied to human DPP1 enzyme in Assay Buffer (25 mM MES pH 6.0, 50 mM NaCl, 5 mM DTT) in a total reaction volume of 125 μL. 25 μL of compound diluted to 50 nM in Assay Buffer plus 5% DMSO was first added to 50 μL of HL-60 lysate diluted to contain a DPP1 enzyme concentration of roughly 1 ng/μL and allowed to pre-incubate for 10 minutes at 37° C. after which 50 μL of 1000 μM H-Gly-Arg-AMC substrate (Bachem; St. Torrance, CA) was added, giving final compound concentration of 10 nM, a final substrate concentration of 400 μM and a final DMSO concentration of 1%. Substrate cleavage was measured for 90 minutes at 37° C., with fluorescence at Excitation/Emission 350/450 nm measured every 5 minutes. DPP1 concentration was interpolated based on its activity relative to a standard curve of activated human recombinant DPP1 enzyme. Percent inhibition at 10 nM was calculated for each test article based on remaining DPP1 activity compared to enzyme activity in wells that received only vehicle control.
Target sequence in this assay (P53634 25-463): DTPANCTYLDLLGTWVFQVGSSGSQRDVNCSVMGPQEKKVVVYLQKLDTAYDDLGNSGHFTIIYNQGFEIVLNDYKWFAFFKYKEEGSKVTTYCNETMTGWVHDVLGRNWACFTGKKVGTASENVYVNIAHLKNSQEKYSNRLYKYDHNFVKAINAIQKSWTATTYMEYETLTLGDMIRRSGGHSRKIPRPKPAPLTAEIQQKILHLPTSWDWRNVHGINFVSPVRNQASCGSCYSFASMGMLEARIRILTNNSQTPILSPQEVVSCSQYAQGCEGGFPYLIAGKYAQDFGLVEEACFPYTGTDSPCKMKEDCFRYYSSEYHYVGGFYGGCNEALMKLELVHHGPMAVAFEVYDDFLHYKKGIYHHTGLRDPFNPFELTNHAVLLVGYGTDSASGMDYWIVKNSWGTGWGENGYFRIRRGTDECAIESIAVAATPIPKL

Experiment [2] addresses T2, DPP1 in HL-60 cells (Homo sapiens, UniProt P53634). Nature of the experiment: DPP1 Cell Single-Point Percent Inhibition Testing. Set-up: host or cells: HL-60 cells. Type of experiment: cell-based. The conditions noted are these: final compound concentration 5 nM, n = 1. The protocol:
Example 100. DPP1 Cell Single-Point Percent Inhibition Testing
HL-60 cells (ATCC; Manassas, VA) were maintained in RPMI-1640 supplemented with 20% heat-inactivated FBS and 1× Antibiotic Antimycotic (Cytiva; Marlborough, MA). Media was changed every three to four days and cells were not allowed to exceed 1×10^6 cells per mL. Prior to assay, cells were collected by centrifugation at 500 rcf for 3 minutes, resuspended in RPMI (with no additional supplements) and counted. Cells were diluted in RPMI to a concentration of 5×10^5 live cells per mL and transferred to black 96-well plates for assay, 60 μL per well. Test articles were diluted to 25 nM in RPMI plus 0.5% DMSO, and 20 μL was added to each assay well. Compound was allowed to pre-incubate with cells with gentle shaking at 100 rpm for 60 minutes at 37° C. in a cell culture incubator maintained at 5% CO2, after which 20 μL of 500 μM H-Gly-Phe-AFC cell-permeable substrate (MP Biomedicals; Solon, OH) in RPMI was added to each well, giving final compound concentration of 5 nM, a final substrate concentration of 100 μM and a final DMSO concentration of 0.1%. Plates were returned to the incubator with shaking at 100 rpm for 30 minutes, after which fluorescence was measured at Excitation/Emission 400/505 nm. Percent Inhibition was calculated from RFU values by first subtracting background values (wells in which RPMI was substituted for cells) from each well, and then subtracting background-subtracted RFU derived from wells that received a final concentration of 10 μM brensocatib. This value represents the non-specific substrate cleavage from the HL-60 cells, and the remaining RFU should theoretically be solely the contribution of DPP1 enzyme activity. The final percent inhibition value was calculated for each test article based on remaining RFU compared to RFU from wells that received only vehicle control.

The target in experiment [3] is T1, human DPP1 enzyme. Nature of the experiment: Human DPP1 Enzyme IC50 Assay. The format is biochemical. Set-up: was first proteolytically processed into its mature form using recombinant human cathepsin L; purchased R&D Systems. To be noted: activated recombinant human DPP1, 400 μM H-Gly-Arg-AMC, 10 minutes pre-incubation at 37° C., pH 6.0; average of n runs; read-out: Avg. IC50 (Human DPP1 enzyme IC50 value ranges). Put shortly: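 Recombinant human DPP1, pre-activated with cathepsin L (pH 4.5), was preincubated with compound 10 min at 37 °C in MES pH 6.0, 50 mM NaCl, 5 mM DTT, 1% DMSO. Cleavage of 400 μM (final) H-Gly-Arg-AMC followed by fluorescence (350/450 nm) over 90 min at 37 °C; IC50 from four-parameter logistic fit versus no-compound control.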
Target sequence in this assay (P53634 25-134 limits assumed): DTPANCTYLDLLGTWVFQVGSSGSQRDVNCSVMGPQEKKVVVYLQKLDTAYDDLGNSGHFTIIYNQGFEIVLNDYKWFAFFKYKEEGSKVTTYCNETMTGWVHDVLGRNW
Target sequence in this assay (P53634 231-394 limits assumed): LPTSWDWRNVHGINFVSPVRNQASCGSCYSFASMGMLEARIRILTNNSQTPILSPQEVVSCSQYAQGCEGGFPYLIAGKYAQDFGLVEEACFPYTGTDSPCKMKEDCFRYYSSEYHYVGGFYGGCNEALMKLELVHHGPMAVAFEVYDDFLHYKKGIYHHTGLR
Target sequence in this assay (P53634 395-463 limits assumed): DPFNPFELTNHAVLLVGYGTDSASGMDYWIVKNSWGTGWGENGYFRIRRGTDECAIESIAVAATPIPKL

For experiment [4], the target named is T2, DPP1 in HL-60 cells. Nature of the experiment: DPP1 Cell IC50 assay. Type of experiment: cell-based. More on the design: host or cells: HL-60 cells. The conditions noted are these: 60 min pre-incubation, H-Gly-Phe-AFC substrate, average of n runs, read-out: Avg. IC50 (DPP1 Cell IC50 value ranges). Put shortly: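 HL-60 cells in PBS (5×10^5 live cells per mL) pre-incubated with compound (0.5% DMSO) 60 min at 37° C, 5% CO2, then H-Gly-Phe-AFC substrate (500 μM stock) added for 30 min. Fluorescence at 400/505 nm; % inhibition vs vehicle wells, IC50 from four-parameter logistic fit.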

T2 sequence (P53634 25-463): as the sequence (P53634 25-463) above

For the compound `CN1CCCC2(C1)C(=O)N(C)c1ccc(-c3ccc(C[C@@H](C#N)NC(=O)[C@@H]4CNCCCCO4)cc3)cc12` (stereo partly shown) [Compound 36], the inhibition at 0.01 µM in experiment [1] is not above 40%. In experiment [2], the inhibition at 0.005 µM is not above 76.5%.
On the same counts, the results for `CN1CC2(C1)OC(=O)c1ccc(-c3ccc(C[C@@H](C#N)NC(=O)[C@@H]4CNCCCCO4)cc3)cc12` [Compound 37] are not above 40% and not above 76.5%.
Compound `CN1CCC2(C1)OC(=O)c1ccc(-c3ccc(C[C@@H](C#N)NC(=O)[C@@H]4CNCCCCO4)cc3)cc12` (stereo partly shown) [Compound 38] gave an inhibition at 0.01 µM in experiment [1] not above 40%. The same compound yielded an inhibition at 0.005 µM in experiment [2] not above 76.5%.
In the same order, the values of `N#C[C@H](Cc1ccc(-c2ccc3c(c2)C2(CCN(C4COC4)CC2)OC3)cc1)NC(=O)[C@@H]1CNCCCCO1` [Compound 39] are not above 40% and not above 76.5%.
For `CN1CCN(Cc2ccc(-c3ccc(C[C@@H](C#N)NC(=O)[C@@H]4CNCCCCO4)cc3)cc2)CC1` [Compound 40], the inhibition at 0.01 µM in experiment [1] is not above 40%. This compound returned an inhibition at 0.005 µM in experiment [2] not above 76.5%.
Turning to `CN1CCCC2(C1)C(=O)N(C)c1ccc(-c3ccc(C[C@@H](C#N)NC(=O)[C@@H]4CNCCCCO4)c(F)c3)cc12` (stereo partly shown) [Compound 41], the inhibition at 0.01 µM in experiment [1] was 40 to 66.7%. Further, the inhibition at 0.005 µM in experiment [2] is not above 76.5%.
The compound `CN1CC2(C1)OC(=O)c1ccc(-c3ccc(C[C@@H](C#N)NC(=O)[C@@H]4CNCCCCO4)c(F)c3)cc12` [Compound 42] displayed an inhibition at 0.01 µM in experiment [1] of 40 to 66.7%. This compound showed an inhibition at 0.005 µM in experiment [2] not above 76.5%.
`CN1CCC2(C1)OC(=O)c1ccc(-c3ccc(C[C@@H](C#N)NC(=O)[C@@H]4CNCCCCO4)c(F)c3)cc12` (stereo partly shown) [Compound 43] came in with an inhibition at 0.01 µM in experiment [1] of 40 to 66.7%. Also, the inhibition at 0.005 µM in experiment [2] was not above 76.5%.
As to `N#C[C@H](Cc1ccc(-c2ccc3c(c2)C2(CCN(C4CCC4)CC2)OC3)cc1F)NC(=O)[C@@H]1CNCCCCO1` [Compound 44], in experiment [1], the inhibition at 0.01 µM lay in the range of 40 to 66.7%. Also, the inhibition at 0.005 µM in experiment [2] is not above 76.5%.
In experiment [1], `CN1CCN(Cc2ccc(-c3ccc(C[C@@H](C#N)NC(=O)[C@@H]4CNCCCCO4)c(F)c3)cc2)CC1` [Compound 45] came in with an inhibition at 0.01 µM not above 40%. The compound also came in with an inhibition at 0.005 µM in experiment [2] not above 76.5%.
In turn, `N#C[C@H](Cc1ccc(-c2ccc(S(=O)(=O)N3CCC3)cc2)cc1)NC(=O)[C@@H]1CNCCCCO1` [Compound 46] yielded an inhibition at 0.01 µM in experiment [1] not above 40%. Further, the inhibition at 0.005 µM in experiment [2] was not above 76.5%.
On to `N#C[C@H](Cc1ccc(-c2ccc(S(=O)(=O)N3CCC3)cc2)cc1F)NC(=O)[C@@H]1CNCCCCO1` [Compound 47], for which the inhibition at 0.01 µM in experiment [1] was not above 40%. In experiment [2], this compound returned an inhibition at 0.005 µM not above 76.5%.
On the same counts, the results for `CN1CCCC2(C1)C(=O)N(C)c1ccc(-c3ccc(C[C@@H](C#N)NC(=O)[C@@H]4CNCCCO4)c(F)c3)cc12` (stereo partly shown) [Compound 48] are 40 to 66.7% and not above 76.5%.
Take `N#C[C@H](Cc1ccc(-c2ccc(S(=O)(=O)N3CCC3)cc2)cc1F)NC(=O)[C@@H]1CNCCCO1` [Compound 49]: in experiment [1], the inhibition at 0.01 µM was not above 40%. The compound also displayed an inhibition at 0.005 µM in experiment [2] not above 76.5%.
Compound `CO[C@@H]1CCNC[C@@H](C(=O)N[C@H](C#N)Cc2ccc(-c3cc4c(C)nc(C)cn4c3)cc2)OC1` [Compound A80] displayed an inhibition at 0.01 µM in experiment [1] not below 66.7%. The inhibition at 0.005 µM in experiment [2] is 76.5 to 93.9%.
In the same order, the values of `CO[C@@H]1CCNC[C@@H](C(=O)N[C@H](C#N)Cc2ccc(-c3ccc4c(n3)CCCN4)cc2)OC1` [Compound A81] are 40 to 66.7% and not above 76.5%.
As to `CO[C@@H]1CCNC[C@@H](C(=O)N[C@H](C#N)Cc2ccc(-c3cc4c(C)nc(C)cn4c3)cc2F)OC1` [Compound A82], in experiment [1], the inhibition at 0.01 µM was not below 66.7%. This compound also had an inhibition at 0.005 µM in experiment [2] of 76.5 to 93.9%.
In experiment [1], `CO[C@@H]1CCNC[C@@H](C(=O)N[C@H](C#N)Cc2ccc(-c3ccc4c(n3)CCCN4)cc2F)OC1` [Compound A83] displayed an inhibition at 0.01 µM not below 66.7%. This compound yielded an inhibition at 0.005 µM in experiment [2] of 76.5 to 93.9%.
As for `CO[C@@H]1CCNC[C@@H](C(=O)N[C@H](C#N)Cc2ccc(-c3cnc4c(n3)CCCC4)cc2)OC1` [Compound A84], the inhibition at 0.01 µM in experiment [1] lay in the range of 40 to 66.7%. The compound further came in with an inhibition at 0.005 µM in experiment [2] not above 76.5%.
Compound `CO[C@@H]1CCNC[C@@H](C(=O)N[C@H](C#N)Cc2ccc(-c3cnc4c(n3)CCCC4)cc2F)OC1` [Compound A85] gave an inhibition at 0.01 µM in experiment [1] not below 66.7%. Moreover, the inhibition at 0.005 µM in experiment [2] is not above 76.5%.
In turn, `COC1CNC[C@@H](C(=O)N[C@H](C#N)Cc2ccc(-c3cc4c(C)nc(C)cn4c3)cc2)OC1` (stereo partly shown) [Compound A86] registered an inhibition at 0.01 µM in experiment [1] of 40 to 66.7%. The compound further gave an inhibition at 0.005 µM in experiment [2] not above 76.5%.
`COC1CNC[C@@H](C(=O)N[C@H](C#N)Cc2ccc(-c3ccc4c(n3)CCCN4)cc2)OC1` (stereo partly shown) [Compound A87]: the inhibition at 0.01 µM in experiment [1] is not below 66.7%. This compound had an inhibition at 0.005 µM in experiment [2] of 76.5 to 93.9%.
In the same order, the values of `COC1CNC[C@@H](C(=O)N[C@H](C#N)Cc2ccc(-c3cnc4c(n3)CCCC4)cc2)OC1` (stereo partly shown) [Compound A90] are not below 66.7% and not above 76.5%.
Compound `COC1CNC[C@@H](C(=O)N[C@H](C#N)Cc2ccc(-c3cnc4c(n3)CCCC4)cc2F)OC1` (stereo partly shown) [Compound A91] gave an inhibition at 0.01 µM in experiment [1] not below 66.7%. This compound showed an inhibition at 0.005 µM in experiment [2] not above 76.5%.
For the compound `N#C[C@H](Cc1ccc(-c2ccc3c(c2)C[C@]2(CCN(c4nccs4)C2)OC3)cc1)NC(=O)[C@@H]1CNCCCO1` [Compound I14], the results for the IC50 in experiment [3] and in experiment [4] were more than 15 nM and more than 2.5 nM, respectively.
With `N#C[C@H](Cc1ccc(-c2ccc3c(c2)[C@]2(CCCN(C#N)C2)SC3)cc1)NC(=O)[C@@H]1CNCCCO1` [Compound I15], the results for the IC50 in experiment [3] and in experiment [4] were more than 15 nM and more than 2.5 nM, respectively.
On the same counts, the results for `N#C[C@H](Cc1ccc(-c2ccc3c(c2)C2(CCN(c4nccs4)CC2)SC3)cc1)NC(=O)[C@@H]1CNCCCO1` [Compound I16] are more than 15 nM and more than 2.5 nM.
In the same order, the values of `N#C[C@H](Cc1ccc(-c2ccc3c(c2)[C@]2(CCN(C#N)C2)SC3)cc1)NC(=O)[C@@H]1CNCCCO1` [Compound I18] are more than 15 nM and more than 2.5 nM.
Regarding `N#C[C@H](Cc1ccc(-c2ccc3c(c2)[C@]2(CCCN(c4nccs4)C2)COC3)cc1)NC(=O)[C@@H]1CNCCCO1` [Compound I20], the figures for the IC50 in experiment [3] and in experiment [4] were more than 15 nM and more than 2.5 nM, respectively.

The record behind these values is patent US20260008760A1, “DIPEPTIDYL PEPTIDASE 1 INHIBITORS AND USES THEREOF” (Insmed Incorporated, priority 2024, published 2026).
